{"source": "patent EP0908457B1", "about": "“3-(1,2-benzisothiazol- and isoxazol-5-Y1)-2,4(1H,3H)-pyrimidinedione or thione and 3-(1,2-benzisothiazol- and isoxazol-5-y1)-4(3H)-pyrimidinone or thione herbicidal agents” (BASF AKTIENGESELLSCHAFT, priority 1997, dated 1999)", "key": {"[1]": {"tested_on": "Echinochloa oryzoides (Ard.) Fritsch.", "test": "Preemergence weed control under flooded paddy conditions, ECHORC (Watergrass (Calif.)); on herbicidal effect rating, ECHORC: meaning of each grade not given here", "type": "in vivo", "settings": "preemergence, flooded paddy"}, "Cyperus iria": {"tested_on": "Cyperus iria", "test": "Preemergence weed control under flooded paddy conditions, CYPIR (Rice Flatsedge); on herbicidal effect rating, CYPIR: meaning of each grade not given here", "type": "in vivo", "settings": "preemergence, flooded paddy"}, "[2]": {"tested_on": "Cyperus serotinus, Rottb.", "test": "Preemergence weed control under flooded paddy conditions, CYPSE (Flatsedge); on herbicidal effect rating, CYPSE: meaning of each grade not given here", "type": "in vivo", "settings": "preemergence"}, "[3]": {"tested_on": "Monochoria vaginalis, Presl.", "test": "Preemergence weed control under flooded paddy conditions, MOOVA (Monochoria); on herbicidal effect rating, MOOVA: meaning of each grade not given here", "type": "in vivo", "settings": "preemergence, flooded paddy"}, "Sagittaria pygmaea, L.": {"tested_on": "Sagittaria pygmaea, L.", "test": "Preemergence weed control under flooded paddy conditions, SAGPY (Arrowhead (Pygmaea)); on herbicidal effect rating, SAGPY: meaning of each grade not given here", "type": "in vivo", "settings": "preemergence, flooded paddy"}, "[4]": {"tested_on": "Oryza sativa, (L.) Tebonnet", "test": "Rice tolerance to post-transplant applications under flooded paddy conditions (Example 187), ORYSAT (Rice, Tebonnet); on herbicidal effect rating ORYSAT: meaning of each grade not given here", "settings": "for herbicidal effect rating, ORYSAT (rice tolerance) / ORYSAT herbicidal rating (rice tolerance): rated three to four weeks after treatment; for herbicidal effect rating ORYSAT: rated 3-4 weeks after treatment"}, "[5]": {"settings": "0.0313 kg/ha, rated three to four weeks after treatment"}, "[6]": {"settings": "0.0625 kg/ha, rated three to four weeks after treatment"}, "[7]": {"settings": "0.1250 kg/ha, rated three to four weeks after treatment"}, "[8]": {"settings": "0.2500 kg/ha, rated three to four weeks after treatment"}, "[9]": {"settings": "Rate 0.0320 kg/ha, rated 3-4 weeks after treatment"}, "[10]": {"settings": "Rate 0.0620 kg/ha, rated 3-4 weeks after treatment"}, "[11]": {"settings": "Rate 0.1250 kg/ha, rated 3-4 weeks after treatment"}, "[12]": {"settings": "Rate 0.2500 kg/ha, rated 3-4 weeks after treatment"}, "[13]": {"settings": "0.0320 kg/ha, rated three to four weeks after treatment"}, "[14]": {"settings": "0.0620 kg/ha, rated three to four weeks after treatment"}}, "data": [{"smiles": "CCc1ccc(OC(C)C(=O)OC)c(-c2nsc3ccc(-n4c(=O)cc(C(F)(F)F)n(C)c4=O)cc23)c1", "note": "(stereo not drawn) [Example 28, Methyl 2-{2-{5-[3,6-dihydro-3-methyl-2,6-dioxo-4-(trifluoromethyl)-1(2H)-pyrimidinyl]-1,2-benzisothiazol-3-yl}-4-ethylphenoxy}propionate]", "values": [{"measurement": "herbicidal effect rating, ECHORC", "setting": "[1]; [5]", "result": 8.0}, {"measurement": "herbicidal effect rating, ECHORC", "setting": "[1]; [6]", "result": 9.0}, {"measurement": "herbicidal effect rating, ECHORC", "setting": "[1]; [7]", "result": 9.0}, {"measurement": "herbicidal effect rating, ECHORC", "setting": "[1]; [8]", "result": 9.0}, {"measurement": "herbicidal effect rating, CYPIR", "setting": "Cyperus iria; [5]", "result": 2.0}, {"measurement": "herbicidal effect rating, CYPIR", "setting": "Cyperus iria; [6]", "result": 4.0}, {"measurement": "herbicidal effect rating, CYPIR", "setting": "Cyperus iria; [7]", "result": 6.0}, {"measurement": "herbicidal effect rating, CYPIR", "setting": "Cyperus iria; [8]", "result": 9.0}, {"measurement": "herbicidal effect rating, CYPSE", "setting": "[2]; [5]", "result": 0.0}, {"measurement": "herbicidal effect rating, CYPSE", "setting": "[2]; [6]", "result": 0.0}, {"measurement": "herbicidal effect rating, CYPSE", "setting": "[2]; [7]", "result": 0.0}, {"measurement": "herbicidal effect rating, CYPSE", "setting": "[2]; [8]", "result": 4.0}, {"measurement": "herbicidal effect rating, MOOVA", "setting": "[3]; [5]", "result": 8.0}, {"measurement": "herbicidal effect rating, MOOVA", "setting": "[3]; [6]", "result": 9.0}, {"measurement": "herbicidal effect rating, MOOVA", "setting": "[3]; [7]", "result": 9.0}, {"measurement": "herbicidal effect rating, MOOVA", "setting": "[3]; [8]", "result": 9.0}, {"measurement": "herbicidal effect rating, SAGPY", "setting": "Sagittaria pygmaea, L.; [5]", "result": 0.0}, {"measurement": "herbicidal effect rating, SAGPY", "setting": "Sagittaria pygmaea, L.; [6]", "result": 2.0}, {"measurement": "herbicidal effect rating, SAGPY", "setting": "Sagittaria pygmaea, L.; [7]", "result": 4.0}, {"measurement": "herbicidal effect rating, SAGPY", "setting": "Sagittaria pygmaea, L.; [8]", "result": 8.0}, {"measurement": "herbicidal effect rating, ORYSAT (rice tolerance)", "setting": "[4]; 0.0313 kg/ha", "result": 3.0}, {"measurement": "herbicidal effect rating, ORYSAT (rice tolerance)", "setting": "[4]; 0.0625 kg/ha", "result": 4.0}, {"measurement": "herbicidal effect rating, ORYSAT (rice tolerance)", "setting": "[4]; 0.1250 kg/ha", "result": 7.0}, {"measurement": "herbicidal effect rating, ORYSAT (rice tolerance)", "setting": "[4]; 0.2500 kg/ha", "result": 9.0}]}, {"smiles": "C=CCOCC(CC)(COCC=C)COC(=O)COc1ccc(C)cc1-c1nsc2ccc(-n3c(=O)cc(C(F)(F)F)n(C)c3=O)cc12", "note": "[Example 521, Acetic acid, {{2-{5-[3,6-dihydro-3-methyl-2,6-dioxo-4-(trifluoromethyl)-1(2H)-pyrimidinyl]-1,2-benzisothiazol-3-yl}-p-tolyl}oxy}-, 2,2-bis-[(allyloxy)methyl]butyl ester]", "values": [{"measurement": "herbicidal effect rating, ECHORC", "setting": "[1]; [9]", "result": 2.0}, {"measurement": "herbicidal effect rating, ECHORC", "setting": "[1]; [10]", "result": 2.0}, {"measurement": "herbicidal effect rating, ECHORC", "setting": "[1]; [11]", "result": 4.0}, {"measurement": "herbicidal effect rating, ECHORC", "setting": "[1]; [12]", "result": 4.0}, {"measurement": "herbicidal effect rating, CYPIR", "setting": "Cyperus iria; [9]", "result": 0.0}, {"measurement": "herbicidal effect rating, CYPIR", "setting": "Cyperus iria; [10]", "result": 0.0}, {"measurement": "herbicidal effect rating, CYPIR", "setting": "Cyperus iria; [11]", "result": 0.0}, {"measurement": "herbicidal effect rating, CYPIR", "setting": "Cyperus iria; [12]", "result": 2.0}, {"measurement": "herbicidal effect rating, CYPSE", "setting": "[2]; [9]", "result": 0.0}, {"measurement": "herbicidal effect rating, CYPSE", "setting": "[2]; [10]", "result": 0.0}, {"measurement": "herbicidal effect rating, CYPSE", "setting": "[2]; [11]", "result": 0.0}, {"measurement": "herbicidal effect rating, CYPSE", "setting": "[2]; [12]", "result": 0.0}, {"measurement": "herbicidal effect rating, MOOVA", "setting": "[3]; [9]", "result": 6.0}, {"measurement": "herbicidal effect rating, MOOVA", "setting": "[3]; [10]", "result": 9.0}, {"measurement": "herbicidal effect rating, MOOVA", "setting": "[3]; [11]", "result": 9.0}, {"measurement": "herbicidal effect rating, MOOVA", "setting": "[3]; [12]", "result": 9.0}, {"measurement": "herbicidal effect rating, SAGPY", "setting": "Sagittaria pygmaea, L.; [9]", "result": 0.0}, {"measurement": "herbicidal effect rating, SAGPY", "setting": "Sagittaria pygmaea, L.; [10]", "result": 0.0}, {"measurement": "herbicidal effect rating, SAGPY", "setting": "Sagittaria pygmaea, L.; [11]", "result": 0.0}, {"measurement": "herbicidal effect rating, SAGPY", "setting": "Sagittaria pygmaea, L.; [12]", "result": 0.0}, {"measurement": "herbicidal effect rating ORYSAT", "setting": "[4]; Rate 0.0320 kg/ha", "result": 0.0}, {"measurement": "herbicidal effect rating ORYSAT", "setting": "[4]; Rate 0.0620 kg/ha", "result": 0.0}, {"measurement": "herbicidal effect rating ORYSAT", "setting": "[4]; Rate 0.1250 kg/ha", "result": 0.0}, {"measurement": "herbicidal effect rating ORYSAT", "setting": "[4]; Rate 0.2500 kg/ha", "result": 0.0}]}, {"smiles": "Cc1ccc(OC(C)(C)C(=O)O)c(-c2nsc3ccc(-n4c(=O)cc(C(F)(F)F)n(C)c4=O)cc23)c1", "note": "[Example 515, Propionic acid, 2-{{2-{5-[3,6-dihydro-3-methyl-2,6-dioxo-4-(trifluoromethyl)-1(2H)-pyrimidinyl]-1,2-benzisothiazol-3-yl}-p-tolyl}oxy}-2-methyl-]", "values": [{"measurement": "ECHORC herbicidal rating", "setting": "[1]; [13]", "result": 2.0}, {"measurement": "ECHORC herbicidal rating", "setting": "[1]; [14]", "result": 6.0}, {"measurement": "ECHORC herbicidal rating", "setting": "[1]; [7]", "result": 8.0}, {"measurement": "ECHORC herbicidal rating", "setting": "[1]; [8]", "result": 9.0}, {"measurement": "CYPIR herbicidal rating", "setting": "Cyperus iria; [13]", "result": 0.0}, {"measurement": "CYPIR herbicidal rating", "setting": "Cyperus iria; [14]", "result": 2.0}, {"measurement": "CYPIR herbicidal rating", "setting": "Cyperus iria; [7]", "result": 4.0}, {"measurement": "CYPIR herbicidal rating", "setting": "Cyperus iria; [8]", "result": 7.0}, {"measurement": "CYPSE herbicidal rating", "setting": "[2]; [13]", "result": 0.0}, {"measurement": "CYPSE herbicidal rating", "setting": "[2]; [14]", "result": 0.0}, {"measurement": "CYPSE herbicidal rating", "setting": "[2]; [7]", "result": 0.0}, {"measurement": "CYPSE herbicidal rating", "setting": "[2]; [8]", "result": 0.0}, {"measurement": "MOOVA herbicidal rating", "setting": "[3]; [13]", "result": 9.0}, {"measurement": "MOOVA herbicidal rating", "setting": "[3]; [14]", "result": 9.0}, {"measurement": "MOOVA herbicidal rating", "setting": "[3]; [7]", "result": 9.0}, {"measurement": "MOOVA herbicidal rating", "setting": "[3]; [8]", "result": 9.0}, {"measurement": "SAGPY herbicidal rating", "setting": "Sagittaria pygmaea, L.; [13]", "result": 0.0}, {"measurement": "SAGPY herbicidal rating", "setting": "Sagittaria pygmaea, L.; [14]", "result": 0.0}, {"measurement": "SAGPY herbicidal rating", "setting": "Sagittaria pygmaea, L.; [7]", "result": 0.0}, {"measurement": "SAGPY herbicidal rating", "setting": "Sagittaria pygmaea, L.; [8]", "result": 0.0}, {"measurement": "ORYSAT herbicidal rating (rice tolerance)", "setting": "[4]; 0.0320 kg/ha", "result": 0.0}, {"measurement": "ORYSAT herbicidal rating (rice tolerance)", "setting": "[4]; 0.0620 kg/ha", "result": 2.0}, {"measurement": "ORYSAT herbicidal rating (rice tolerance)", "setting": "[4]; 0.1250 kg/ha", "result": 4.0}, {"measurement": "ORYSAT herbicidal rating (rice tolerance)", "setting": "[4]; 0.2500 kg/ha", "result": 6.0}]}]}
